Values joined by “and” are separate entries in the source; they are usually repeats but may differ in a detail not shown here. Equal entries are not always repeated. Where two headings read alike, the source gives them in different places.
Assays:
[1] = tested on: SARS-CoV-2 WA1/2020 (lineage A); assay: microbe, parasite or virus in culture; type: cell-based
[2] = tested on: SARS-CoV-2 CA/2020 (α, lineage B.1.1.7); assay: microbe, parasite or virus in culture; type: cell-based; conditions: Severe acute respiratory syndrome coronavirus 2, Vero C1008; CA/2020, VeroE6, mean n=3
[3] = tested on: SARS-CoV-2 BZ/2021 (γ, lineage P.1); assay: microbe, parasite or virus in culture; type: cell-based; conditions: Severe acute respiratory syndrome coronavirus 2, Vero C1008; BZ/2021, VeroE6, mean n=3
[4] = tested on: SARS-CoV-2-Nluc (WA1/2020-nano luciferase); assay: microbe, parasite or virus in culture; type: cell-based
[5] = tested on: SARS-CoV-2 gamma isolate (BZ/2021, lineage P.1); assay: microbe, parasite or virus in culture; type: cell-based; conditions: Severe acute respiratory syndrome coronavirus 2
[6] = tested on: well-differentiated primary human airway epithelium cultures; type: cell-based
[7] = tested on: SARS-CoV-2 (WA1/2020 and VOC α, β, γ); assay: microbe, parasite or virus in culture; type: cell-based; conditions: Severe acute respiratory syndrome coronavirus 2, Vero C1008; read-out: Half-maximal effective concentrations (EC50), range
[8] = design: method as in Mackman et al 2021 (JMC 2021, 64(8), 5001-5017); conditions: rats, ref Mackman et al 2021 (JMC 2021, 64(8), 5001-5017); cited from earlier work
[9] = design: method as in Mackman et al 2021 (JMC 2021, 64(8), 5001-5017); conditions: cynomolgus macaques, ref Mackman et al 2021 (JMC 2021, 64(8), 5001-5017); cited from earlier work
[10] = several species; cited from earlier work
in vitro [11] = conditions: human
in vitro [12] = conditions: human, % cell viability, HEp-2, 3.704 µM, 72 h
in vitro [13] = conditions: human, % cell viability, HCT-8, 0.046 µM, 72 h
[14] = Cytotoxicity assay (PrestoBlue), HEp-2; conditions: human, HEp-2 cells
[15] = Cytotoxicity assay (PrestoBlue), HCT-8; conditions: human, HCT-8 cells
[16] = Cytotoxicity assay (PrestoBlue), VeroE6; conditions: African green monkey, VeroE6 cells
VeroE6 cells = assay: Cytotoxicity assay (PrestoBlue), VeroE6; conditions: 72 h
[17] = Cytotoxicity assay (PrestoBlue), BHK-21; conditions: hamster, BHK-21 cells
[18] = Cytotoxicity assay (PrestoBlue), “F2” HAE; conditions: human
[19] = Cytotoxicity assay (PrestoBlue), “F3” HAE; conditions: human
“F3” primary HAE cells = assay: Cytotoxicity assay (PrestoBlue), “F3” HAE; conditions: F3 HAE, 72 h
[20] = Cytotoxicity assay (PrestoBlue), “M2” HAE; conditions: human
[21] = Cytotoxicity assay (PrestoBlue), “M6” HAE; conditions: human
“M6” primary HAE cells = assay: Cytotoxicity assay (PrestoBlue), “M6” HAE; conditions: M6 HAE, 72 h
[22] = Single-dose plasma pharmacokinetics in ferrets; conditions: ferret, GS-441524 IV 20 mg/kg, 20 mg/kg

N#C[C@@]1(c2ccc3c(N)ncnn23)O[C@H](CO)[C@@H](O)[C@H]1O [GS-441524]
EC50 ([1]; Severe acute respiratory syndrome coronavirus 2, Vero C1008, WA1/2020, VeroE6, mean n=3): 680 nM | Virus yield reduction ([1]; WA1/2020, VeroE6, 5.55556 µM, vehicle = 0): -3.43 | EC50 [2]: 110 nM | EC50 [3]: 550 nM | A549-hACE2 SARS-CoV-2 Nluc (EC50 determination), normalized signal ([4]; Conc 0.005 µM, replicate values of the experiments): 114.03 | A549-hACE2 SARS-CoV-2 Nluc (EC50 determination), normalized signal ([4]; Conc 0.02 µM, replicate values of Exp 1-6): 66.74 and 93.22 and 117.07 and 119.81 and 81.21 | A549-hACE2 SARS-CoV-2 Nluc (EC50 determination), normalized signal ([4]; Conc 0.07 µM, replicate values of Exp 1-6): 114.55 and 112.96 and 134.59 and 90.75 | A549-hACE2 SARS-CoV-2 Nluc (EC50 determination), normalized signal ([4]; Conc 0.21 µM, replicate values of Exp 1-6): 92.40 and 126.15 | A549-hACE2 SARS-CoV-2 Nluc (EC50 determination), normalized signal ([4]; Conc 3.333 µM, replicate values of the experiments): 14.96 and 23.34 and 25.42 | A549-hACE2 SARS-CoV-2 Nluc (EC50 determination), normalized signal ([4]; Conc 5.56 µM, replicate values of Exp 1-6): 3.54 and 6.01 and 4.94 and 3.43 and 3.57 and 2.25 and 0.47 and 0.46 and 0.35 and 0.41 and 5.69 | A549-hACE2 SARS-CoV-2 Nluc (EC50 determination), normalized signal ([4]; Conc 10.000 µM, replicate values of the experiments): 0.35 and 0.30 and 0.32 and 0.31 | A549-hACE2 SARS-CoV-2 Nluc (EC50 determination), normalized signal ([4]; Conc 16.67 µM, replicate values of Exp 1-6): 1.67 and 0.36 (2×) and 0.34 and 1.12 and 1.72 and 1.07 and 0.18 (2×) and 0.21 and 0.23 and 0.31 | A549-hACE2 SARS-CoV-2 Nluc (EC50 determination), normalized signal ([4]; Conc 50.00 µM, replicate values of Exp 1-6): 0.89 and 0.17 (2×) and 0.16 (3×) and 0.55 and 0.87 and 0.59 and 0.19 and 0.20 and 0.18 | EC50 ([4]; Severe acute respiratory syndrome coronavirus 2, WA1/2020-nano luciferase, A549-ACE2, mean ± SD): 1400 ± 900 nM | EC50 [5]: 2830 nM | basolateral drug concentration at which epithelium integrity (TEER) was fully preserved [6]: ≥ 3 µM | EC50 [7]: 110 to 680 nM | oral F [8]: 12% | oral F [9]: 3.4% | oral bioavailability (in words) [10]: poor oral bioavailability | CC50 at 48 h (in vitro [11]): > 50000 nM | viability at 72 h, 3.704 µM (in vitro [12]): 93% | viability at 72 h, 0.046 µM (in vitro [13]): 88% | viability at 72 h, 0.046 µM ([14]; % cell viability, HEp-2, 0.046 µM, 72 h): 52% | viability at 72 h, 100 µM ([14]; % cell viability, HEp-2, 100 µM, 72 h): 51% | CC50 at 72 h ([14]; CC50, HEp-2, 72 h): > 100000 nM | viability at 72 h, 0.046 µM ([15]; % cell viability, HCT-8, 0.046 µM, 72 h): 74% | viability at 72 h, 1.235 µM ([15]; % cell viability, HCT-8, 1.235 µM, 72 h): 89% | viability at 72 h, 100 µM ([15]; % cell viability, HCT-8, 100 µM, 72 h): 62% | CC50 at 72 h ([15]; CC50, HCT-8, 72 h): > 100000 nM | CC50 at 72 h [16]: > 100000 nM | viability at 72 h, 0.046 µM ([16]; % cell viability, VeroE6, 0.046 µM, 72 h): 60% | viability at 72 h, 1.235 µM ([16]; % cell viability, VeroE6, 1.235 µM, 72 h): 75% | viability at 72 h, 3.704 µM ([16]; % cell viability, VeroE6, 3.704 µM, 72 h): 84% | viability at 72 h, 100 µM ([16]; % cell viability, VeroE6, 100 µM, 72 h): 66% | % cell viability (VeroE6 cells; VeroE6, 0.046 µM, 0.046 µM): 56% and 59% | % cell viability (VeroE6 cells; VeroE6, 1.235 µM, 1.235 µM): 91% and 82% | % cell viability (VeroE6 cells; VeroE6, 3.704 µM, 3.704 µM): 92% | % cell viability (VeroE6 cells; VeroE6, 100 µM, 100 µM): 59% | CC50 at 72 h [17]: > 100000 nM | viability at 72 h, 0.046 µM ([17]; % cell viability, BHK-21, 0.046 µM, 72 h): 64% | viability at 72 h, 1.235 µM ([17]; % cell viability, BHK-21, 1.235 µM, 72 h): 87% | viability at 72 h, 0.046 µM ([18]; female, “F2” primary human airway epithelial (HAE) cells, % cell viability, F2 HAE, 0.046 µM): 92% | viability at 72 h, 100 µM ([18]; % cell viability, F2 HAE, 100 µM): 86% | CC50 at 72 h ([18]; CC50, “F2” HAE): > 100000 nM | viability at 72 h, 0.046 µM ([19]; female, “F3” primary human airway epithelial (HAE) cells, % cell viability, F3 HAE, 0.046 µM): 87% | viability at 72 h, 100 µM ([19]; % cell viability, F3 HAE, 100 µM): 84% | CC50 at 72 h ([19]; CC50, “F3” HAE): > 100000 nM | % cell viability (“F3” primary HAE cells; 0.046 µM): 90% | % cell viability (“F3” primary HAE cells; 100 µM): 86% and 74% | CC50 at 72 h [20]: > 100000 nM | CC50 at 72 h [21]: > 100000 nM | % cell viability (“M6” primary HAE cells; 0.046 µM): 87% | % cell viability (“M6” primary HAE cells; 3.704 µM): 86% | plasma concentration of GS-441524 ([22]; 0.25 h): 40.5 and 46.6 and 24.1 | plasma concentration of GS-441524 ([22]; 0.48 h): 62.4 and 57.2 and 43 | plasma concentration of GS-441524 ([22]; 0.58 h): 51.5 and 48.2 and 37.8 | plasma concentration of GS-441524 ([22]; 4 h): 8.65 and 7.17 | plasma concentration of GS-441524 ([22]; 8 h): 2.1 and 1.85 and 1.83 | plasma concentration of GS-441524 ([22]; 12 h): 0.669 and 0.467 and 0.448

Reference: publication PMC8571282 (Nature Communications, 2021)
